The text below walks through data of PMC10897196, “Structure–activity characteristics of phenylalanine analogs selectively transported by L-type amino acid transporter 1 (LAT1)” (Scientific Reports, 2024).

Structures are written as SMILES. Like-named read-outs stand apart in the source and are kept apart here.

The target of data set [1] is T1, human LAT1 (Homo sapiens, UniProt Q01650).
T1 construct: expressed in transfected cells
Put plainly: Inhibition of L-[14C]leucine uptake in HEK293-hLAT1 cells. The class given is cell-based. The note with it: for Ki: L-[14C]leucine uptake. From the text:
In this study, we used the HEK293 cells stably expressing human LAT1 or human LAT2, which form a heterodimeric complex with endogenous 4F2hc (CD98hc), required for plasma membrane localization. We first explored the impact of halogen group positioning in the benzene ring of Phe (Fig. 1) on its interaction with LAT1 and LAT2. […] We conducted inhibition experiments to measure the uptake of L-[^14C]leucine by LAT1 and L-[^14C]alanine by LAT2 in the presence or absence of Phe derivatives with an iodo group at position 2, 3, or 4 in the benzene ring.
The inhibition experiments were performed as described previously. HEK293-hLAT1 (1.5 × 10^5 cells/well) or HEK293-hLAT2 (2 × 10^5 cells/well) cells were plated onto poly-D-lysine-coated 24-well plates (Corning, New York, USA). Following a 2-day culture period, the uptake of 1 μM L-[^14C]leucine or L-[^14C]alanine was measured for 1 min in the absence or presence of non-radiolabeled test compounds at concentrations of 10, 30, and 100 μM. Radioactivity was quantified using a β-scintillation counter (LSC-3100; Aloka, Tokyo, Japan), and protein concentrations were determined with a Micro BCA Protein Assay Kit (Thermo Fisher Scientific, Rockford, IL). To calculate Ki values, the concentration-dependent uptake of L-[^14C]leucine or L-[^14C]alanine was analyzed in the presence and absence of test compounds[49]. The data were plotted against substrate concentration and fitted to Michaelis–Menten kinetics. Ki values were derived using nonlinear regression analysis with the enzyme kinetics inhibition module in GraphPad Prism software (Version 10.0.2; GraphPad Software Inc., San Diego, CA, USA).

Data set [2] is described as follows: Tissue accumulation (plasma, tumor, small intestine) in B16-F10 tumor-bearing mice, HPLC. The class given is in vivo. Here is the method: Female C57BL/6J mice were subcutaneously injected with 2 × 10^6 B16-F10 cells. The cells were prepared in a mixture containing a 1:1 volume ratio of phosphate-buffered saline (PBS) and Matrigel (Corning, New York, USA), with the total injection volume being 200 μL, administered into the dorsal flank. Tumor growth was measured bi-daily using calipers until tumors reached a size of approximately 300 ~ 500 mm^3, at which point they were deemed palpable. […] Blood samples were collected at 30 and 60 min post-administration. Then both the tumors and small intestines were excised and weighed for subsequent analysis by HPLC.
(§1) HPLC analyses were conducted as previously described. In brief, tumors and small intestines were homogenized in ice-cold PBS (3 times the tissue weight, v/w). The homogenates were then centrifuged at 15,000 ×g for 40 min at 4 °C. A 10 μL aliquot of the tissue supernatant or plasma was mixed with 190 μL of acetonitrile (MeCN) to precipitate proteins. This mixture was subsequently centrifuged at 15,000 ×g for 30 min at 4 °C. The resulting supernatant (100 μL) was dried, and the residue was reconstituted in 20 μL of 400 mM sodium borate (pH 8.0). Finally, 5 μL of 40 mM 4-fluoro-7-nitro-2,1,3-benzoxadiazole (NBD-F) in MeCN was added for fluorescence derivatization. HPLC analysis was carried out using a NANOSPACE SI-2 HPLC system (Shiseido, Tokyo, Japan) equipped with a fluorescence detector. […] The mobile phase consisted of MeCN, water, and trifluoroacetic acid (TFA) in a 27.5:72.5:0.05 (v/v/v) ratio, delivered at a flow rate of 200 μL/min.

The nature of data set [3]: Plasma concentration-time profile in normal mice after intravenous administration. The class given is in vivo. The settings on record: C57BL/6J mice, i.v., 15, 30, 60, 120 min; 2-F-Tyr 15.6 mg/kg, bicyclic-Phe 15 mg/kg. Here is the method: The blood samples were collected at 15, 30, 60, and 120 min post-administration into lithium heparin-coated tubes (BD, New Jersey, USA) and then centrifuged at 1,500 ×g for 10 min at 23 °C. The resulting plasma was stored at −80 °C pending analysis by HPLC.
as §1

The target in data set [4] is T1, human LAT1. The experiment in a line: Efflux of pre-loaded L-[14C]leucine from HEK293-hLAT1 cells induced by extracellular compounds. The format is cell-based. The note with it: 1 min. The method, then:
We evaluated the efflux of pre-loaded L-[^14C]leucine from LAT1 and pre-loaded L-[^14C]alanine from LAT2 induced by extracellularly applied compounds.
Efflux experiments were performed as described previously. Cells cultured 48 h were pre-loaded with 5 μM L-[^14C]leucine or L-[^14C]alanine for 10 min at 37 °C. The cells were then washed, and the efflux was induced by incubating cells for 1 min in either the absence or presence of non-radiolabeled test compounds at indicated concentrations. The efflux time of 1 min fell within the linear range of time-dependent substrate efflux mediated by LAT1 and LAT2 (Supplementary Fig. S2). Following incubation, the medium was collected and radioactivity was measured in both the medium and the cells. Efflux was quantified as the percentage of radioactivity released into the medium, calculated using the formula: radioactivity of medium/(radioactivity of medium + radioactivity of cells) × 100%.
The kinetic parameters for the efflux of L-[^14C]leucine or L-[^14C]alanine induced by various concentrations of extracellularly-applied test compounds were analyzed. The baseline efflux values—those obtained in the absence of test compounds—were subtracted from the values measured in the presence of the compounds. The resultant data were fitted to Michaelis–Menten kinetics to determine the Km and Vmax by nonlinear regression analysis using “enzyme kinetics-velocity as a function of substrate” module within GraphPad Prism software.

Setting [5] is: LAT1, L-[14C]leucine efflux, mean ± S.E.M., n = 3.

T1 sequence (Q01650 whole entry): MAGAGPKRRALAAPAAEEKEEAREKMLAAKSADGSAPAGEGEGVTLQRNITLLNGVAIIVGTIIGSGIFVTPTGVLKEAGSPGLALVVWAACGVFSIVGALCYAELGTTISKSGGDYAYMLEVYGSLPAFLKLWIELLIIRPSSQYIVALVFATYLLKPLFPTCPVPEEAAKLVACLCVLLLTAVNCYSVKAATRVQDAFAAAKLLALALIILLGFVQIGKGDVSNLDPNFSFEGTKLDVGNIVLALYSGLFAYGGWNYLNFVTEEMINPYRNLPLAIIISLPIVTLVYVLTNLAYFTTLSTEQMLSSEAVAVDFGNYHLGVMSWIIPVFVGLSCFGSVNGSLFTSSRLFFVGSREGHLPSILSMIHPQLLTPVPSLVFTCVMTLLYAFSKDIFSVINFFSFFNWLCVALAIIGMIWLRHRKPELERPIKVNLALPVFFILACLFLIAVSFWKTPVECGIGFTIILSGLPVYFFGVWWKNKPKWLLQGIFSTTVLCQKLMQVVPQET
T1 sequence (P08195 102-630 partner): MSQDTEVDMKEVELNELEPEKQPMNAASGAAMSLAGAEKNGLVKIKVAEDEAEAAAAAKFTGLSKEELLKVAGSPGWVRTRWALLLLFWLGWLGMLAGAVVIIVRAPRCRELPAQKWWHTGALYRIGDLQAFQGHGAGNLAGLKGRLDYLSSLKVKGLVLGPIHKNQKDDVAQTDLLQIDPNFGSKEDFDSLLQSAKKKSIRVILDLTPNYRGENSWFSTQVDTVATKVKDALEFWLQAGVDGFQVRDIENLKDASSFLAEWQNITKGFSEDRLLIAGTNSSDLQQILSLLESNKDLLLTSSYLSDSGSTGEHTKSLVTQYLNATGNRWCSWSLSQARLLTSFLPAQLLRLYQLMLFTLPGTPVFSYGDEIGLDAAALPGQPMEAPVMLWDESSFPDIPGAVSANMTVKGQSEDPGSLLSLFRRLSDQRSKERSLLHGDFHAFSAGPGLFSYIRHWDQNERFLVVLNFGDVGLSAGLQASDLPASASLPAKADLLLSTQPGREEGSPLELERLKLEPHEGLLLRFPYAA

Consider `N[C@]1(C(=O)O)CCc2ccccc2C1` [bicyclic-Phe, (R)-2-amino-1,2,3,4-tetrahydro-2-naphthoic acid], for which the “Inhibition of LAT1-mediated L-[14C]leucine uptake (in words, rank order)” value in data set [1] (1 μM L-[14C]leucine, 1 min, compounds at 10, 30, 100 μM) was “inhibit”. The Ki (as a rule, a dissociation constant, usually derived from enzyme kinetics or from competition with a known ligand) is 78.2 ± 13.9 µM in data set [1] (Ki for LAT1 calculated at 100 μM of compound, HEK293-hLAT1, inhibitor at 100 μM); 66.7 ± 7.08 µM in data set [1] (Ki for LAT1 calculated at 300 μM of compound, HEK293-hLAT1, inhibitor at 300 μM); 78.2 ± 13.9 µM in data set [1] (HEK293-hLAT1, mean ± S.E.M., n = 3–4, read-out: Ki (μM) LAT1). In addition, the “Mode of inhibition of LAT1 (Lineweaver–Burk plot)” value in data set [1] (L-[14C]leucine 50, 100, 200, 400 μM) was “competitive manner”. The “Ki ratio (LAT2/LAT1)” value in data set [1] (LAT1 selectivity, LAT2 Ki over LAT1 Ki) stood at 47.98. Moreover, the “Small intestine-to-plasma ratio (I/P) (in words)” value in data set [2] (30 and 60 min after i.v., equimolar doses) is on record as “significantly lower than that for 2-F-Tyr”. The “Concentration in small intestine compared with plasma” value in data set [2] (i.v., normalized to tissue weight / plasma volume) is “lower than in plasma”. Also, the “Concentration in tumor compared with plasma” value in data set [2] (i.v., normalized to tissue weight / plasma volume, 2-F-Tyr at 60 min) is listed as “higher than in plasma”. Moreover, in data set [3], the “Plasma concentration (in words)” value is on record as “consistently showing higher levels than 2-F-Tyr”. Besides, the Km – broadly, the substrate concentration at which the rate is half of its maximum – in data set [4] (setting [5]) amounted to 27.3 ± 3.08 µM. For the same compound, the “Vmax of efflux (% radioactivity/min)” value in data set [4] (setting [5]) was found to be 15.43 ± 0.40 % radioactivity/min. Moreover, the “LAT1-mediated L-[14C]leucine efflux induced (in words)” value in data set [4] (compounds at 10, 30, 100 μM) is given as “transported by LAT1 as substrates”.
